Measured values: ChEMBL document CHEMBL5303573, “Mapping human microbiome drug metabolism by gut bacteria and their genes” (Nature, 2019)

Legend:
[1] = The drug is tested on Bifidobacterium ruminantium strain: fecal isolate for biotransformation. The drug concentrations were measured before and after a 12-h incubation by liquid-chromatography-coupled mass spectrometry (LC–MS); conditions: 2 µM
[2] = The drug is tested on Bacteroides fragilis strain: HMW610 for biotransformation. The drug concentrations were measured before and after a 12-h incubation by liquid-chromatography-coupled mass spectrometry (LC–MS); conditions: 2 µM
[3] = The drug is tested on Bacteroides fragilis strain: HMW615 for biotransformation. The drug concentrations were measured before and after a 12-h incubation by liquid-chromatography-coupled mass spectrometry (LC–MS); conditions: 2 µM
[4] = The drug is tested on Bacteroides ovatus strain: ATCC8483 for biotransformation. The drug concentrations were measured before and after a 12-h incubation by liquid-chromatography-coupled mass spectrometry (LC–MS); conditions: 2 µM
[5] = The drug is tested on Bacteroides pectinophilus strain: ATCC43243 for biotransformation. The drug concentrations were measured before and after a 12-h incubation by liquid-chromatography-coupled mass spectrometry (LC–MS); conditions: 2 µM
[6] = The drug is tested on Bacteroides uniformis strain: ATCC8492 for biotransformation. The drug concentrations were measured before and after a 12-h incubation by liquid-chromatography-coupled mass spectrometry (LC–MS); conditions: 2 µM
[7] = The drug is tested on Bacteroides xylanisolvens strain: DSM18836 for biotransformation. The drug concentrations were measured before and after a 12-h incubation by liquid-chromatography-coupled mass spectrometry (LC–MS); conditions: 2 µM
[8] = The drug is tested on Clostridium sp. strain: fecal isolate for biotransformation. The drug concentrations were measured before and after a 12-h incubation by liquid-chromatography-coupled mass spectrometry (LC–MS); conditions: 2 µM
[9] = The drug is tested on Clostridium scindens strain: ATCC35704 for biotransformation. The drug concentrations were measured before and after a 12-h incubation by liquid-chromatography-coupled mass spectrometry (LC–MS); conditions: 2 µM
[10] = The drug is tested on Enterococcus faecalis strain: V583 for biotransformation. The drug concentrations were measured before and after a 12-h incubation by liquid-chromatography-coupled mass spectrometry (LC–MS); conditions: 2 µM
[11] = The drug is tested on Ruminococcus gnavus strain: ATCC29149 for biotransformation. The drug concentrations were measured before and after a 12-h incubation by liquid-chromatography-coupled mass spectrometry (LC–MS); conditions: mediterraneibacter gnavus, 2 µM
[12] = The drug is tested on Ruminococcus lactaris strain: ATCC29176 for biotransformation. The drug concentrations were measured before and after a 12-h incubation by liquid-chromatography-coupled mass spectrometry (LC–MS); conditions: 2 µM
[13] = The drug is tested on Edwardsiella tarda strain: ATCC23685 for biotransformation. The drug concentrations were measured before and after a 12-h incubation by liquid-chromatography-coupled mass spectrometry (LC–MS); conditions: 2 µM
[14] = The drug is tested on Providencia rettgeri strain: DSM1131 for biotransformation. The drug concentrations were measured before and after a 12-h incubation by liquid-chromatography-coupled mass spectrometry (LC–MS); assay type: ADME; design: dose 2 uM, timepoint 0 vs 12 hours; conditions: 2 µM
[15] = The drug is tested on Providencia stuartii strain: ATCC25827 for biotransformation. The drug concentrations were measured before and after a 12-h incubation by liquid-chromatography-coupled mass spectrometry (LC–MS); conditions: 2 µM
[16] = bacteroides fragilis, 12 h, 2 µM
Description: The drug is tested on Bacteroides fragilis strain: NCTC 9343 for biotransformation. The drug concentrations were measured before and after a 12-h incubation by liquid-chromatography-coupled mass spectrometry (LC–MS)

[17] = bacteroides thetaiotaomicron, 12 h, 2 µM
Description: The drug is tested on Bacteroides thetaiotaomicron strain: VPI-5482 for biotransformation. The drug concentrations were measured before and after a 12-h incubation by liquid-chromatography-coupled mass spectrometry (LC–MS)

[18] = bacteroides thetaiotaomicron, 12 h, 2 µM; remark: listed apart in the source
Description: The drug is tested on Bacteroides thetaiotaomicron strain: 7330 for biotransformation. The drug concentrations were measured before and after a 12-h incubation by liquid-chromatography-coupled mass spectrometry (LC–MS)

[19] = roseburia intestinalis, 12 h, 2 µM
Description: The drug is tested on Roseburia intestinalis strain: L1-82 for biotransformation. The drug concentrations were measured before and after a 12-h incubation by liquid-chromatography-coupled mass spectrometry (LC–MS)

SMILES | Bacterial Biotransformation [1] | Bacterial Biotransformation [2] | Bacterial Biotransformation [3] | Bacterial Biotransformation [4] | Bacterial Biotransformation [5] | Bacterial Biotransformation [6] | Bacterial Biotransformation [7] | Bacterial Biotransformation [8] | Bacterial Biotransformation [9] | Bacterial Biotransformation [10] | Bacterial Biotransformation [11] | Bacterial Biotransformation [12] | Bacterial Biotransformation [13] | Bacterial Biotransformation [14] | Bacterial Biotransformation [15] | Bacterial Biotransformation [16] | Bacterial Biotransformation [17] | Bacterial Biotransformation [18] | Bacterial Biotransformation [19]
CCc1nc(N)nc(N)c1-c1ccc(Cl)cc1 [PYRIMETHAMINE] | Compound NOT metabolized | Compound NOT metabolized | Compound NOT metabolized | Compound NOT metabolized | Compound NOT metabolized | Compound NOT metabolized | Compound NOT metabolized | Compound NOT metabolized | Compound NOT metabolized | Compound NOT metabolized | Compound NOT metabolized | Compound NOT metabolized | Compound NOT metabolized | Compound NOT metabolized | Compound NOT metabolized | Compound NOT metabolized | Compound NOT metabolized | Compound NOT metabolized | Compound NOT metabolized
Cc1cc(C)cc(OCC2CNC(=O)O2)c1 (stereo unspecified) [METAXALONE] | Compound NOT metabolized | Compound metabolized | Compound metabolized | Compound metabolized | Compound metabolized | Compound metabolized | Compound metabolized | Compound metabolized | Compound NOT metabolized | Compound NOT metabolized | Compound NOT metabolized | Compound NOT metabolized |  |  | Compound NOT metabolized | Compound metabolized |  |  | Compound NOT metabolized
COC(=O)[C@H]1[C@H]2C[C@@H]3c4[nH]c5cc(OC)ccc5c4CCN3C[C@H]2C[C@@H](OC(=O)c2cc(OC)c(OC)c(OC)c2)[C@@H]1OC [RESERPINE] | Compound NOT metabolized | Compound NOT metabolized | Compound NOT metabolized | Compound NOT metabolized |  | Compound NOT metabolized | Compound NOT metabolized | Compound NOT metabolized |  | Compound NOT metabolized | Compound NOT metabolized | Compound NOT metabolized | Compound NOT metabolized | Compound NOT metabolized | Compound NOT metabolized | Compound NOT metabolized | Compound NOT metabolized | Compound NOT metabolized | Compound NOT metabolized
CCCCc1nc(Cl)c(CO)n1Cc1ccc(-c2ccccc2-c2nn[nH]n2)cc1 [LOSARTAN] | Compound metabolized | Compound metabolized | Compound metabolized | Compound NOT metabolized | Compound NOT metabolized | Compound metabolized | Compound metabolized |  | Compound NOT metabolized | Compound NOT metabolized | Compound NOT metabolized | Compound NOT metabolized | Compound metabolized | Compound NOT metabolized | Compound NOT metabolized | Compound metabolized |  |  | 
C[C@@H]1C[C@H]2[C@@H]3CCC4=CC(=O)C=C[C@]4(C)[C@@]3(F)[C@@H](O)C[C@]2(C)[C@@]1(O)C(=O)CO [DEXAMETHASONE] |  | Compound metabolized |  |  |  | Compound metabolized | Compound metabolized |  | Compound metabolized | Compound NOT metabolized | Compound NOT metabolized | Compound NOT metabolized | Compound NOT metabolized | Compound NOT metabolized |  |  | Compound metabolized |  | 
